Reference: patent publication US12257287B2, “Glucagon-derived peptide and use thereof” (Tianjin Institute of Pharmaceutical Research Co., Ltd., priority 2018, dated 2025)
≈ marks a conversion by molar mass, not a printed value. Marks after values point to notes of the source that are not given here. Values belong to the molecule of their own block, whether it stands above or below them. Peptide text beside a SMILES is read from it.

Key:
[1] = Effect on body weight of DIO mice after 14 days' administration; type: in vivo, C57BL/6J mice; conditions: positive values indicate a decrease; for body weight change, Table 5: Example 4, DIO mice, 14 days' administration, methods as in Example 3
Text: C57BL/6J mice (n=35), model group (n=30) were fed with H10060 high-fat diet to induce obesity (DIO), blank control group (n=5) were fed with standard diet, both for 34 weeks. One day before the first administration, the model group was randomly divided into groups according to their body weight (average body weight range 45.0-52.0 g), with 5 mice in each group, which respectively were model control group, positive control group (semaglutide), and test sample group (1 #-4 # are compound 1, compound 4, compound 6 and compound 22, respectively). The blank control group and model control group were given saline subcutaneously every day, while the positive control group and test sample group were administrated by subcutaneous injection every day for 14 days. The body weight of the animals was weighed and recorded every day, and the change rate of body weight (%) was calculated by comparing the body weight at the last administration day with the initial body weight. (initial body weight−last body weight)/initial body weight=body weight change rate (%). Calculation formula: […]
Calculated positive values indicate a decrease and negative values indicate an increase.
(§1) Methods are the same as that in Example 3, the test results of effects on body weight are shown in Table 5, and the effects on blood glucose are shown in Table 6. In the table, 5 #-9 # are compound 27, compound 35, compound 54, compound 57, and compound 66, respectively.

[2] = Glucose tolerance test in glucose-loaded DIO mice; type: in vivo; design: AUC reduction rate (%), Table 6: concentration or dose not given beside the values; conditions: for AUC of blood glucose, Table 6: Example 4, DIO mice under glucose load, methods as in Example 3; for AUC reduction rate (%), Table 6: Example 4, compared with model control group, DIO mice under glucose load
Experimental: DIO mice fasted for 16 h, and 1 h after administration by subcutaneous injection, glucose solution (1 g/kg) was given intraperitoneally for glucose tolerance test. Blood glucose values were measured at 0.5, 1 and 1.5 h after glucose administration. The area under the blood glucose concentration curve (AUC) was calculated and compared with that of the model control group, and the blood glucose inhibition rate (%) was calculated.
as §1

GC receptor = target: T1, GC receptor (Homo sapiens, UniProt P47871); assay: GC receptor mediated cAMP production in vitro (HEK293 cells transfected with GC receptor); type: cell-based; conditions: 20 min at 37° C., read-out: GCGR (nM EC50)
T1 construct: expressed in transfected cells; host or cells: HEK293 cells
T1 sequence (P47871 26-477): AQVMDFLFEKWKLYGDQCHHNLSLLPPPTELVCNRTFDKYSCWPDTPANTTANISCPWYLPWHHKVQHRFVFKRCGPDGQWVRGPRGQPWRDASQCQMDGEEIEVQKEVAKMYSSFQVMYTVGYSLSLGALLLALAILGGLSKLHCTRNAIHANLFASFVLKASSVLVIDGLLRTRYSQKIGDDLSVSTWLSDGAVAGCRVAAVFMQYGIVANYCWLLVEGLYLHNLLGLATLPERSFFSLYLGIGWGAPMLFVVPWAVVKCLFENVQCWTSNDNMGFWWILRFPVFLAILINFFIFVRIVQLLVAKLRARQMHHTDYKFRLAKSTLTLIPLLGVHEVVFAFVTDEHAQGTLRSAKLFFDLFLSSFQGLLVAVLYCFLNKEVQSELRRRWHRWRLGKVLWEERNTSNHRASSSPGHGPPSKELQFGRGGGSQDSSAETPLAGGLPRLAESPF
Text: The medium was removed, the cells were lysed, and cAMP values were detected referring to the detection method described for the assay kit.

physchem = type: physicochemical
Experimental: 2 mg of the compound was weighed, dissolved in 1 ml of phosphate buffer solutions with different concentrations (10, 20 mM) and different pH values (7.5, 8.0), and centrifuged, and supernatant was taken. The peak area was measured by HPLC (chromatographic column: Aeris widepore XB-C18 3.6 mm, 4.6×150 mm; mobile phase: A: 0.05% TFA, B: 95% acetonitrile; detection wavelength: 214 nm) and compared with a corresponding sample standard solution, and the relative concentration of the test sample solution is calculated.
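Wherever solubility is given: compound added at 2 mg per mL of phosphate buffer, with the dissolved amount determined in the supernatant.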

Molecule: HAibQGTFTSDYSKYLEEK*RAREFVEWLLEAGGPSSG-Amid (HXQGTFTSDYSKYLEEKRAREFVEWLLEAGGPSSG; HELM PEPTIDE1{H.[Aib].Q.G.T.F.T.S.D.Y.S.K.Y.L.E.E.K.R.A.R.E.F.V.E.W.L.L.E.A.G.G.P.S.S.G.[am]}|PEPTIDE2{[CCCCCCCCCCCCCCCC(=O)[*:2]].[gGlu].[gGlu]}$PEPTIDE1,PEPTIDE2,17:R3-3:R2$$$V2.0; N-terminus assumed; SMILES CCCCCCCCCCCCCCCC(=O)N[C@@H](CCC(=O)N[C@@H](CCC(=O)NCCCC[C@H](NC(=O)[C@H](CCC(=O)O)NC(=O)[C@H](CCC(=O)O)NC(=O)[C@H](CC(C)C)NC(=O)[C@H](Cc1ccc(O)cc1)NC(=O)[C@H](CCCCN)NC(=O)[C@H](CO)NC(=O)[C@H](Cc1ccc(O)cc1)NC(=O)[C@H](CC(=O)O)NC(=O)[C@H](CO)NC(=O)[C@@H](NC(=O)[C@H](Cc1ccccc1)NC(=O)[C@@H](NC(=O)CNC(=O)[C@H](CCC(N)=O)NC(=O)C(C)(C)NC(=O)[C@@H](N)Cc1c[nH]cn1)[C@@H](C)O)[C@@H](C)O)C(=O)N[C@@H](CCCNC(=N)N)C(=O)N[C@@H](C)C(=O)N[C@@H](CCCNC(=N)N)C(=O)N[C@@H](CCC(=O)O)C(=O)N[C@@H](Cc1ccccc1)C(=O)N[C@H](C(=O)N[C@@H](CCC(=O)O)C(=O)N[C@@H](Cc1c[nH]c2ccccc12)C(=O)N[C@@H](CC(C)C)C(=O)N[C@@H](CC(C)C)C(=O)N[C@@H](CCC(=O)O)C(=O)N[C@@H](C)C(=O)NCC(=O)NCC(=O)N1CCC[C@H]1C(=O)N[C@@H](CO)C(=O)N[C@@H](CO)C(=O)NCC(N)=O)C(C)C)C(=O)O)C(=O)O) [Compound 8, 32; * = -γE-γE-OC16H31]
body weight change, Table 5 [1]: 24.1 | AUC of blood glucose, Table 6 [2]: 8.11 ± 1.92 mmol·h/L | AUC reduction rate (%), Table 6 [2]: 59.2** %

EC50 (GC receptor): 0.193 nM
Molecule: CCCCCCCCCCCCCCCC(=O)N[C@@H](CCC(=O)N[C@@H](CCC(=O)NCCCC[C@H](NC(=O)[C@H](CC(=O)O)NC(=O)[C@H](CO)NC(=O)[C@@H](NC(=O)[C@H](Cc1ccccc1)NC(=O)[C@@H](NC(=O)CNC(=O)[C@H](CCC(N)=O)NC(=O)C(C)(C)NC(=O)[C@@H](N)Cc1c[nH]cn1)[C@@H](C)O)[C@@H](C)O)C(=O)N[C@@H](CO)C(=O)N[C@@H](CCCCN)C(=O)N[C@@H](Cc1ccc(O)cc1)C(=O)N[C@@H](CC(C)C)C(=O)N[C@@H](CCC(=O)O)C(=O)N[C@@H](CCC(=O)O)C(=O)N[C@@H](CCCNC(=N)N)C(=O)N[C@@H](C)C(=O)N[C@@H](C)C(=O)N[C@@H](CCCCN)C(=O)N[C@@H](CCC(=O)O)C(=O)N[C@@H](Cc1ccccc1)C(=O)N[C@H](C(=O)N[C@@H](CCC(=O)O)C(=O)N[C@@H](Cc1c[nH]c2ccccc12)C(=O)N[C@@H](CC(C)C)C(=O)N[C@@H](CCC(=O)O)C(=O)NCC(=O)NCC(=O)N1CCC[C@H]1C(=O)N[C@@H](CO)C(=O)N[C@@H](CO)C(=O)NCC(N)=O)C(C)C)C(=O)O)C(=O)O [Compound 5] (HELM PEPTIDE1{H.[Aib].Q.G.T.F.T.S.D.K.S.K.Y.L.E.E.R.A.A.K.E.F.V.E.W.L.E.G.G.P.S.S.G.[am]}|PEPTIDE2{[CCCCCCCCCCCCCCCC(=O)[*:2]].[gGlu].[gGlu]}$PEPTIDE1,PEPTIDE2,10:R3-3:R2$$$V2.0; N-terminus assumed)
body weight change, Table 5 ([1]; listed as 5#): 27.74 | AUC of blood glucose, Table 6 ([2]; listed as 5#): 7.12 ± 1.30 mmol·h/L | AUC reduction rate (%), Table 6 ([2]; listed as 5#): 64.2** %

EC50 (GC receptor): 0.026 nM
Molecule: CCCCCCCCCCCCCCCC(=O)N[C@@H](CCC(=O)N[C@@H](CCC(=O)NCCCC[C@H](NC(=O)[C@H](CC(=O)O)NC(=O)[C@H](CO)NC(=O)[C@@H](NC(=O)[C@H](Cc1ccccc1)NC(=O)[C@@H](NC(=O)CNC(=O)[C@H](CCC(N)=O)NC(=O)C(C)(C)NC(=O)[C@@H](N)Cc1c[nH]cn1)[C@@H](C)O)[C@@H](C)O)C(=O)N[C@@H](CO)C(=O)N[C@@H](CCCCN)C(=O)N[C@@H](Cc1ccc(O)cc1)C(=O)N[C@@H](CC(C)C)C(=O)N[C@@H](CCC(=O)O)C(=O)N[C@@H](CCC(=O)O)C(=O)N[C@@H](CCCNC(=N)N)C(=O)N[C@@H](C)C(=O)N[C@@H](C)C(=O)N[C@@H](CCCCN)C(=O)N[C@@H](CCC(=O)O)C(=O)N[C@@H](Cc1ccccc1)C(=O)N[C@H](C(=O)N[C@@H](CCC(=O)O)C(=O)N[C@@H](Cc1c[nH]c2ccccc12)C(=O)N[C@@H](CC(C)C)C(=O)N[C@@H](CCC(=O)O)C(=O)NCC(=O)NCC(=O)N1CCC[C@H]1C(=O)N[C@@H](CO)C(=O)N[C@@H](CO)C(=O)NCC(N)=O)C(C)C)C(=O)O)C(=O)O [Compound 7] (HELM PEPTIDE1{H.[Aib].Q.G.T.F.T.S.D.K.S.K.Y.L.E.E.R.A.A.K.E.F.V.E.W.L.E.G.G.P.S.S.G.[am]}|PEPTIDE2{[CCCCCCCCCCCCCCCC(=O)[*:2]].[gGlu].[gGlu]}$PEPTIDE1,PEPTIDE2,10:R3-3:R2$$$V2.0; N-terminus assumed)
body weight change, Table 5 ([1]; listed as 7#): 21.45 | AUC of blood glucose, Table 6 ([2]; listed as 7#): 7.26 ± 1.77 mmol·h/L | AUC reduction rate (%), Table 6 ([2]; listed as 7#): 63.4** %

solubility (physchem; pH 7.5, Solubility, pH 7.5, 10 mM phosphate buffer): 1500 µg/mL (≈ 347 µM) | solubility (physchem; pH 7.5, Solubility, pH 7.5, 20 mM phosphate buffer): 1070 µg/mL (≈ 247 µM) | solubility (physchem; pH 8, Solubility, pH 8.0, 10 mM phosphate buffer): > 2000 µg/mL | solubility (physchem; pH 8, Solubility, pH 8.0, 20 mM phosphate buffer): 1760 µg/mL (≈ 407 µM)
Molecule: CCCCCCCCCCCCCCCC(=O)N[C@@H](CCC(=O)N[C@@H](CCC(=O)NCCCC[C@H](NC(=O)[C@H](CCC(=O)O)NC(=O)[C@H](CCC(=O)O)NC(=O)[C@H](CC(C)C)NC(=O)[C@H](Cc1ccc(O)cc1)NC(=O)[C@H](CCCCN)NC(=O)[C@H](CO)NC(=O)[C@H](Cc1ccc(O)cc1)NC(=O)[C@H](CC(=O)O)NC(=O)[C@H](CO)NC(=O)[C@@H](NC(=O)[C@H](Cc1ccccc1)NC(=O)[C@@H](NC(=O)CNC(=O)[C@H](CCC(N)=O)NC(=O)C(C)(C)NC(=O)[C@@H](N)Cc1c[nH]cn1)[C@@H](C)O)[C@@H](C)O)C(=O)N[C@@H](CCCNC(=N)N)C(=O)N[C@@H](C)C(=O)N[C@@H](CCCNC(=N)N)C(=O)N[C@@H](CCC(=O)O)C(=O)N[C@@H](Cc1ccccc1)C(=O)N[C@H](C(=O)N[C@@H](C)C(=O)N[C@@H](Cc1c[nH]c2ccccc12)C(=O)N[C@@H](CC(C)C)C(=O)N[C@@H](CC(C)C)C(=O)N[C@@H](CCC(=O)O)C(=O)NCC(=O)NCC(=O)N1CCC[C@H]1C(=O)N[C@@H](CO)C(=O)N[C@@H](CO)C(=O)NCC(N)=O)C(C)C)C(=O)O)C(=O)O [Compound 9] (HELM PEPTIDE1{H.[Aib].Q.G.T.F.T.S.D.Y.S.K.Y.L.E.E.K.R.A.R.E.F.V.A.W.L.L.E.G.G.P.S.S.G.[am]}|PEPTIDE2{[CCCCCCCCCCCCCCCC(=O)[*:2]].[gGlu].[gGlu]}$PEPTIDE1,PEPTIDE2,17:R3-3:R2$$$V2.0)
body weight change, Table 5 [1]: 19.9 | AUC of blood glucose, Table 6 [2]: 8.71 ± 2.10 mmol·h/L | AUC reduction rate (%), Table 6 [2]: 56.2** %

Molecule: semaglutide [reference compound]
body weight change rate, Table 3 ([1]; DIO mice, subcutaneous injection every day for 14 days, (initial−last)/initial): 13.20% | body weight change, Table 5 [1]: 16.29 | AUC of blood glucose, Table 4 ([2]; DIO mice fasted 16 h, glucose 1 g/kg i.p. 1 h after s.c. administration, 0.5, 1, 1.5 h): 8.97 ± 1.27 mmol·h/L | AUC of blood glucose, Table 6 [2]: 8.33 ± 1.09 mmol·h/L | AUC reduction rate (%), Table 6 [2]: 58.1** % | AUC reduction rate (%), Table 4 ([2]; blood glucose inhibition rate compared with model control group, DIO mice, glucose 1 g/kg i.p.): 57.7** %
